From patent publication US8802597B2, “Herbicidal pyrimidines” (E I du Pont de Nemours and Company, priority 2003, dated 2014)
Like-named read-outs stand apart in the source and are kept apart here.

Assays:
Assay in all cases: Test C pre/postemergence
Type in all cases: in vivo
corn (Zea mays) = settings: for Corn plant response rating (crop injury, 0 = no effect, 100 = complete kill) at 31 g/ha / Corn plant response rating (crop injury, 0 = no effect, 100 = complete kill) at 62 g/ha / Corn plant response rating (crop injury, 0 = no effect, 100 = complete kill) at 125 g/ha / Corn plant response rating (crop injury, 0 = no effect, 100 = complete kill) at 250 g/ha: Zea mays
How it was run: (§1)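 Rating scale 0–100: 0 means no effect, 100 complete control; taken visually 12 to 14 days post-treatment versus controls. Pre- and postemergence greenhouse applications, postemergence at 1- to 4-leaf stage, non-phytotoxic solvent with surfactant as carrier.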

[1] = tested on: morningglory (Ipomoea coccinea); settings: for pest or weed control at 31 g/ha / pest or weed control at 62 g/ha / pest or weed control at 125 g/ha / pest or weed control at 250 g/ha: Ipomoea
How it was run: as §1

[2] = tested on: woolly cupgrass (Eriochloa villosa); settings: for pest or weed control at 31 g/ha / pest or weed control at 62 g/ha / pest or weed control at 125 g/ha / pest or weed control at 250 g/ha: Eriochloa villosa
How it was run: as §1

[3] = Preemergence, 31 g ai/ha, scale 0 to 100, 0 no effect, 100 complete control
[4] = Preemergence, 62 g ai/ha, scale 0 to 100, 0 no effect, 100 complete control
[5] = Preemergence, 125 g ai/ha, scale 0 to 100
[6] = Preemergence, 250 g ai/ha, scale 0 to 100
[7] = Preemergence, 500 g ai/ha, scale 0 to 100

## CCOC(=O)c1nc(C2CC2)nc(N)c1F [Compound 30]
Corn (Zea mays); post-emergence, Postemergence, 31 g ai/ha, read-out: Plant response rating (scale of 0 to 100), Corn
  Corn plant response rating (crop injury, 0 = no effect, 100 = complete kill) at 31 g/ha: 0%
Corn (Zea mays); post-emergence, Postemergence, 62 g ai/ha, scale 0 to 100 (0 no effect, 100 complete control), read-out: Corn plant response rating
  Corn plant response rating (crop injury, 0 = no effect, 100 = complete kill) at 62 g/ha: 0%
Corn (Zea mays); post-emergence, Postemergence, 125 g ai/ha, scale 0 to 100 (0 no effect, 100 complete control), read-out: Corn plant response rating
  Corn plant response rating (crop injury, 0 = no effect, 100 = complete kill) at 125 g/ha: 0%
Corn (Zea mays); post-emergence, Postemergence, 250 g ai/ha, scale 0 to 100
  Corn plant response rating (crop injury, 0 = no effect, 100 = complete kill) at 250 g/ha: 50%
Corn (Zea mays); pre-emergence, Preemergence, 31 g ai/ha, scale 0 to 100, 0 no effect, 100 complete control, read-out: Plant response rating, Corn
  Corn plant response rating (crop injury, 0 = no effect, 100 = complete kill) at 31 g/ha: 0%
Corn (Zea mays); pre-emergence, Preemergence, 62 g ai/ha, scale 0 to 100, 0 no effect, 100 complete control, read-out: Plant response rating, Corn
  Corn plant response rating (crop injury, 0 = no effect, 100 = complete kill) at 62 g/ha: 0%
Corn (Zea mays); pre-emergence, Preemergence, 125 g ai/ha, scale 0 to 100, read-out: Plant response rating, Corn
  Corn plant response rating (crop injury, 0 = no effect, 100 = complete kill) at 125 g/ha: 0%
Corn (Zea mays); pre-emergence, Preemergence, 250 g ai/ha, scale 0 to 100
  Corn plant response rating (crop injury, 0 = no effect, 100 = complete kill) at 250 g/ha: 0%
[1]; post-emergence, Postemergence, 31 g ai/ha, read-out: Plant response rating (scale of 0 to 100), Morningglory
  pest or weed control at 31 g/ha: 90%
[1]; post-emergence, Postemergence, 62 g ai/ha, scale 0 to 100 (0 no effect, 100 complete control), read-out: Morningglory plant response rating
  pest or weed control at 62 g/ha: 90%
[1]; post-emergence, Postemergence, 125 g ai/ha, scale 0 to 100 (0 no effect, 100 complete control), read-out: Morningglory plant response rating
  pest or weed control at 125 g/ha: 95%
[1]; post-emergence, Postemergence, 250 g ai/ha, scale 0 to 100, read-out: Plant response rating, Morningglory
  pest or weed control at 250 g/ha: 95%
[1]; pre-emergence, Preemergence, 31 g ai/ha, scale 0 to 100, 0 no effect, 100 complete control, read-out: Plant response rating, Morningglory
  pest or weed control at 31 g/ha: 0%
[1]; pre-emergence, Preemergence, 62 g ai/ha, scale 0 to 100, 0 no effect, 100 complete control, read-out: Plant response rating, Morningglory
  pest or weed control at 62 g/ha: 85%
[1]; pre-emergence, Preemergence, 125 g ai/ha, scale 0 to 100, read-out: Plant response rating, Morningglory
  pest or weed control at 125 g/ha: 90%
[1]; pre-emergence, Preemergence, 250 g ai/ha, scale 0 to 100, read-out: Plant response rating, Morningglory
  pest or weed control at 250 g/ha: 100%
[2]; post-emergence, Postemergence, 31 g ai/ha, read-out: Plant response rating (scale of 0 to 100), Cupgrass, Woolly
  pest or weed control at 31 g/ha: 0%
[2]; post-emergence, Postemergence, 62 g ai/ha, scale 0 to 100 (0 no effect, 100 complete control), read-out: Cupgrass, Woolly plant response rating
  pest or weed control at 62 g/ha: 0%
[2]; post-emergence, Postemergence, 125 g ai/ha, scale 0 to 100 (0 no effect, 100 complete control), read-out: Cupgrass, Woolly plant response rating
  pest or weed control at 125 g/ha: 0%
[2]; post-emergence, Postemergence, 250 g ai/ha, scale 0 to 100, read-out: Plant response rating, Cupgrass, Woolly
  pest or weed control at 250 g/ha: 40%
[2]; pre-emergence, Preemergence, 31 g ai/ha, scale 0 to 100, 0 no effect, 100 complete control, read-out: Plant response rating, Cupgrass, Woolly
  pest or weed control at 31 g/ha: 0%
[2]; pre-emergence, Preemergence, 62 g ai/ha, scale 0 to 100, 0 no effect, 100 complete control, read-out: Plant response rating, Cupgrass, Woolly
  pest or weed control at 62 g/ha: 5%
[2]; pre-emergence, Preemergence, 125 g ai/ha, scale 0 to 100, read-out: Plant response rating, Cupgrass, Woolly
  pest or weed control at 125 g/ha: 45%
[2]; pre-emergence, Preemergence, 250 g ai/ha, scale 0 to 100, read-out: Plant response rating, Cupgrass, Woolly
  pest or weed control at 250 g/ha: 50%

## CCOC(=O)C(Cl)c1nc(C2CC2)nc(N)c1Br (centres unmarked) [Compound 31]
Corn (Zea mays); [3]
  Plant response rating, Corn: 0
Corn (Zea mays); [4]
  Plant response rating, Corn: 0
Corn (Zea mays); [5]
  Plant response rating, Corn: 0
Corn (Zea mays); [6]
  Plant response rating, Corn: 0
[1]; [3]
  Plant response rating, Morningglory: 0
[1]; [4]
  Plant response rating, Morningglory: 0
[1]; [5]
  Plant response rating, Morningglory: 10
[1]; [6]
  Plant response rating, Morningglory: 50
[2]; [3]
  Plant response rating, Cupgrass, Woolly: 0
[2]; [4]
  Plant response rating, Cupgrass, Woolly: 0
[2]; [5]
  Plant response rating, Cupgrass, Woolly: 0
[2]; [6]
  Plant response rating, Cupgrass, Woolly: 0

## CCOC(=O)Cc1nc(C2CC2)nc(N=CN(C)C)c1Br [Compound 33]
Corn (Zea mays); [4]
  Plant response rating, Corn: 0
Corn (Zea mays); [5]
  Plant response rating, Corn: 0
Corn (Zea mays); [6]
  Plant response rating, Corn: 30
Corn (Zea mays); [7]
  Plant response rating, Corn: 40
[1]; [4]
  Plant response rating, Morningglory: 0
[1]; [5]
  Plant response rating, Morningglory: 85
[1]; [6]
  Plant response rating, Morningglory: 90
[1]; [7]
  Plant response rating, Morningglory: 95
[2]; [4]
  Plant response rating, Cupgrass, Woolly: 0
[2]; [5]
  Plant response rating, Cupgrass, Woolly: 0
[2]; [6]
  Plant response rating, Cupgrass, Woolly: 0
[2]; [7]
  Plant response rating, Cupgrass, Woolly: 0

## CCOC(=O)c1nc(C2CC2)nc(N=CN(C)C)c1Br [Compound 40]
Corn (Zea mays); [4]
  Plant response rating, Corn: 0
Corn (Zea mays); [5]
  Plant response rating, Corn: 20
Corn (Zea mays); [6]
  Plant response rating, Corn: 20
Corn (Zea mays); [7]
  Plant response rating, Corn: 40
[1]; [5]
  Plant response rating, Morningglory: 90
[1]; [6]
  Plant response rating, Morningglory: 90
[1]; [7]
  Plant response rating, Morningglory: 100
[2]; [4]
  Plant response rating, Cupgrass, Woolly: 5
[2]; [5]
  Plant response rating, Cupgrass, Woolly: 5
[2]; [6]
  Plant response rating, Cupgrass, Woolly: 70
[2]; [7]
  Plant response rating, Cupgrass, Woolly: 95
